# Results as given in patent publication US20040259835A1, “Stabilized brivudine topical formulations” (priority 2001, published 2004).
# System: not listed separately
# Test: Photostabilization of brivudine by admixed substances (formulation not specified)
# Type: physicochemical
# Conditions: not given
# Source text: DE 3136282 proposes to protect light-unstable drugs using substances with a similar absorption profile. The protective effect is supposed to depend on the similarity between the absorption spectra of the stabilizer and of the drug, that is, the larger is the overlapping between the two absorption spectra, the better is the photo-stabilization. According to DE3136282, the ICH (International Conference on Harmonisation) guideline CPMP/ICH/279/95 was followed to determine brivudine degradation. Several substances, including pharmaceutical excipients, colorants or photostable drugs were tested in admixture with brivudine.
Molecule,photostabilization of brivudine (in words),degradation of brivudine (in words)
Cc1ccc(/C=C2/C(=O)C3(C)CCC2C3(C)C)cc1 (centres unmarked) [methyl-benzylidene-camphor],"stabilize brivudine, although to a lesser extent",
COc1ccc(C(=O)CC(=O)c2ccc(C(C)(C)C)cc2)cc1 [avobenzone],"stabilize brivudine, although to a lesser extent",
CCCCC(CC)COC(=O)C(C#N)=C(c1ccccc1)c1ccccc1 (centres unmarked) [octocrylene],"stabilize brivudine, although to a lesser extent",
CCCCC(CC)COC(=O)C=Cc1ccc(OC)cc1 (centres unmarked) [octyl-methoxy-cinnamate],"stabilize brivudine, although to a lesser extent",

# Now from value to molecule, other results behind:
photostabilization of brivudine (in words),Molecule,degradation of brivudine (in words)
No effects,CCCCC(CC)COC(=O)c1ccc(N(C)C)cc1 (centres unmarked) [Padimate O],
No effects,"CCCCC(CC)COC(=O)c1ccc(Nc2nc(Nc3ccc(C(=O)OCC(CC)CCCC)cc3)nc(Nc3ccc(C(=O)OCC(CC)CCCC)cc3)n2)cc1 (centres unmarked) [Uvinul® T150, 2,4,6-trianilino-p-(carbo-2′-ethyl-hexyl-1′-oxi)-1,3,5-triazin]",
No effects,CC1CC(OC(=O)c2ccccc2O)CC(C)(C)C1 (centres unmarked) [homosalate],
did not show any effect,O=C(O)CCCCC1CCSS1 (stereo not drawn) [alpha-liponic acid],
effectively stabilize,"O=C(c1ccc(O)cc1O)c1ccc(O)cc1O [2,2′,4,4′-tetrahydroxybenzophenon, 2,2′,4,4′-tetrahydroxy-benzophenone]",
remarkable photostabilization,"CC1=C(/C=C/C(C)=C/C=C/C(C)=C/C=C/C=C(C)/C=C/C=C(C)/C=C/C2=C(C)CCCC2(C)C)C(C)(C)CCC1 [beta carotene, beta-carotene]",
did not show any effect,N[C@@H](CS)C(=O)O [cystein],
effectively stabilize,COc1cc(O)c(C(=O)c2ccccc2)cc1S(=O)(=O)O [Sulisobenzone],
effectively stabilize,COc1ccc(C(=O)c2ccccc2)c(O)c1 [Oxybenzone],
effectively stabilize,"O=C(c1ccccc1)c1ccc(O)cc1O [2,4-dihydroxy benzophenone]",
effectively stabilize,"COc1cc(O)c(C(=O)c2cc(S(=O)(=O)[O-])c(OC)cc2O)cc1S(=O)(=O)[O-].[Na+].[Na+] [2,2′-dihydroxy-4,4′-dimethoxybenzophenone-5,5′-disodium sulfonate]",
effectively stabilize,COc1ccc(C(=O)c2ccccc2O)c(O)c1 [Dioxybenzone],
best recovery rates,"O=S(=O)([O-])c1ccc(N=Nc2ccc(O)cc2O)cc1.[Na+] [Tropaeolin 0, 2,4-dihydroxyazobenzol-4′-sulfonic acid sodium salt]",nearly no degradation of brivudine was detectable

# Same assay, conditions: substance in admixture with brivudine, UV irradiation
row,Molecule,photostabilization of brivudine (in words)
1,"Type I: 2-(1,3-Dioxo-2-indanyl)-chinolin-disulfonic acid, Disodium salt Type II: 2-(1,3-Dioxo-2-indanyl)-methylchinolin-disulfonic acid, Disodium salt [Quinoline Yellow]",did not satisfactorily stabilize brivudine
2,COc1cc(C=O)ccc1O [Vanillin],did not satisfactorily stabilize brivudine
3,4-Bis(polyethoxy)paraamino-benzoicacid-polyethoxy-ethylester [Uvinul ® P25],No effects

# Same assay, conditions: versus controls
row,protection of brivudine from decomposition over the controls,Molecule
1,more than 30%,"O=S(=O)([O-])c1ccc2c(N=Nc3ccc(S(=O)(=O)[O-])c4ccccc34)c(O)c(S(=O)(=O)[O-])cc2c1.[Na+].[Na+].[Na+] [Food red 9, 3-Hydroxy-4-(4-sulfonato-1-naphtylazo)-naphthalin-2,7-disulfonic acid, Trisodium salt]"

# Same assay, conditions: with respect to brivudine alone
row,Molecule,fold increase of brivudine photostabilization / recovery
1,"7-Hydroxy-8-(4-sulfonato-1-naphthylazo)-naphthalin-1,3-disulfonic acid, trisodium salt [Cochineal Red A]",more then threefold

# System: not given
# Test: not given
# Conditions: UV light; isomerization to Z-BVDU and other decomposition products; state of the art; cited from earlier work
row,Molecule,light stability of brivudine (in words)
1,"O=c1[nH]c(=O)n([C@H]2C[C@H](O)[C@@H](CO)O2)cc1/C=C/Br [brivudine, (E)-5-(2-bromovinyl)-2′-deoxyuridine]",light-instability

# System: varicella-zoster virus (VZV)
# Test: not given
# Conditions: state of the art; cited from earlier work
row,Molecule,effectiveness against VZV (in words)
1,"O=c1[nH]c(=O)n([C@H]2C[C@H](O)[C@@H](CO)O2)cc1/C=C/Br [brivudine, (E)-5-(2-bromovinyl)-2′-deoxyuridine]",very effective

# System: herpes simplex virus type 1 (HSV-1)
# Test: not given
# Conditions: state of the art; cited from earlier work
row,Molecule,effectiveness against HSV-1 (in words)
1,"O=c1[nH]c(=O)n([C@H]2C[C@H](O)[C@@H](CO)O2)cc1/C=C/Br [brivudine, (E)-5-(2-bromovinyl)-2′-deoxyuridine]",very effective
